Test results reported in US20220324770A1, “NITRIFICATION INHIBITORS” (The University of Melbourne, priority 2019, published 2022).

Tests used:
Dahlen soil = assay: Soil thin-layer chromatography (TLC) leaching study, Dahlen soil; assay type: physicochemical; conditions: Dahlen soil TLC
Procedure: (§1) TLC plates were prepared based on methods described in the literature (Helling, C. S., Turner, B. C, Science 1968, 162, 562-563; Mohammad, A., Jabeen, N., JPC—Journal of Planar Chromatography—Modern TLC 2003, 16, 137-143). Masking tape (3 layers, ˜[…] total thickness) was used to outline three columns (4 cm W×12 cm H) on a glass TLC plate (20×20 cm). A slurry of freshly ground soil in distilled H2O (˜2:3 m/v) was then poured onto the prepared plate and spread evenly using a glass rod. Once even, the plate was dried overnight in an oven at 35° C. Careful removal of the masking tape afforded the TLC plate ready for sample application.
(§2) Samples of DMP (the active core of DMPP) or Compound 16 (˜1 mg) dissolved in acetone (100 μL) were pipetted in a straight line across the soil, 2 cm above the base of the plate. Application band thickness was kept under 0.5 cm. After 30 mins of drying time, the TLC plate was developed inside a glass developing chamber with distilled H2O (depth of 0.5 cm) until the solvent front reached the top of the soil (˜1 hr). […] The plate was then allowed to air dry overnight.
(§3) Once dry, the plate was divided into six horizontal bands corresponding to Rf values of: (1) <0.05 (baseline), (2) 0.05 to 0.25, (3) 0.25 to 0.45, (4) 0.45 to 0.65, (5) 0.65 to 0.85, and (6) 0.85 to 1. In sequence, soil in each band was carefully scraped off the glass backing and collected in vials. Special care was taken to avoid cross-contamination between soil of different bands, and the separate channels.
(§4) Individual soil bands collected from the TLC plate were extracted as follows: • 1. Addition of an aqueous solution of CaCl2/MgSO4 (0.01M and 0.45M respectively, 2 mL). • 2. Sonication for 5 minutes then manual shaking for 30 seconds. • 3. Addition of methyl-tert-butyl ether (MTBE, 2 mL) then manual shaking for 30 seconds. • 4. Sonication for 10 minutes then manual shaking for 30 seconds. • 5. Rested until soil began to settle, then frozen overnight at −20° C. • 6. After partial defrosting, the ethereal extract was filtered through nylon syringe filters (FilterBio®, 13 mm diameter, 0.45 µm pore size).
(§5) The filtered ethereal extracts (450 μL) were spiked with 50 μL of a standard solution of either cyclododecanone in MTBE (1.97 mg/mL, for DMP-treated samples) or cyclooctanone in MTBE (6.37 mg/mL, for 16-treated samples). Samples were then directly analysed by GC-MS (method: 70° C. for 5 mins, then ramp 10° C./min to 250° C., hold at 250° C. for 17 mins [total run time=40 minutes]) to analyse the presence or absence of the inhibitor in each soil band.
(§6) GC-MS peak areas calculated for the standards cyclooctanone (Rt=9.1 mins) and cyclododecanone (Rt=15.8 mins) were compared to those calculated for Compound 16 (Rt=13.9 mins) and DMP (Rt=7.6 mins) respectively, for each soil sample extract where inhibitor was detected as follows:
(§7) As each treatment was run in triplicate, mean values are reported for detected inhibitor percentages for each Rf band, with errors presented as the standard deviation.
as §2, with “the DCD” for “DMP (the active core of DMPP) or Compound 16”, “methanol (300” for “acetone (100”, “in” for “with”
(§8) Individual soil bands collected from the TLC plate were extracted as follows: • 1. Addition of methanol (2 mL). • 2. Manual shaking for 30 seconds following sonication for 15 minutes. • 3. Once soil began to settle, the methanolic extract was filtered through nylon syringe filters (FilterBio®, 13 mm diameter, 0.45 µm pore size). • 4. 300 μL of the methanolic extracts were evaporated under nitrogen flow, and then the residues was taken up in ultrapure acetonitrile (1 mL). • 5. […]

South Johnstone soil = assay: Soil thin-layer chromatography (TLC) leaching study, South Johnstone soil; assay type: physicochemical
Procedure: as §1, §2, §3, §4, §5, §6, §7
as §2, with “the DCD” for “DMP (the active core of DMPP) or Compound 16”, “methanol (300” for “acetone (100”, “in” for “with”
as §8

Rf range in which the majority of the inhibitor was detected (Dahlen soil) | Detected Inhibitor (%) (Dahlen soil; Rf 0.45-0.65) | Detected Inhibitor (%) (Dahlen soil; Rf 0.65-0.85) | Detected Inhibitor (%) (Dahlen soil; Rf 0.85-1) | Detected Inhibitor (%) (South Johnstone soil; South Johnstone soil TLC, Rf 0.25-0.45) | Detected Inhibitor (%) (South Johnstone soil; South Johnstone soil TLC, Rf 0.45-0.65) | Detected Inhibitor (%) (South Johnstone soil; South Johnstone soil TLC, Rf 0.65-0.85) | SMILES | leaching in soil TLC (South Johnstone soil; acidic South Johnstone soil) | Rf range of largest DCD accumulation (Dahlen soil; HPLC detection, preliminary results) | Rf range of largest DCD accumulation (South Johnstone soil; South Johnstone soil TLC, HPLC detection, preliminary results)
0.65-0.85 | 0.1 ± 0.2 | 72 ± 16 | 28 ± 16 | 2 ± 2 | 56 ± 12 | 42 ± 13 | Cc1c[nH]nc1C [DMP, 3,4-dimethylpyrazole, reference compound] | leach in a narrower band and to a lesser extent than Compound 16 | – | –
– | – | – | – | – | – | – | N#CN=C(N)N [DCD, dicyandiamide, reference compound] | – | 0.65-1 | 0.65-1
